Reference: patent US10131652B2, “Pyrimidinyloxy benzene derivatives as herbicides” (E. I. DU PONT DE NEMOURS AND COMPANY, priority 2014, dated 2018)
Where two headings read alike, the source gives them in different places.

Assays:
Experiment in all cases: Test D pre-/postemergence plant response
Assay type in all cases: in vivo
[1] = system: soybean (Glycine max); details: Glycine max; for plant injury at 16 g/ha: 16 g ai/ha; for plant injury at 31 g/ha: 31 g ai/ha; for plant injury at 62 g/ha: 62 g ai/ha; for plant injury at 125 g/ha: 125 g ai/ha
From the text: (§1) Seeds of plant species selected from blackgrass (Alopecurus myosuroides), Italian ryegrass (Lolium multiflorum), winter wheat (Triticum aestivum), galium (catchweed bedstraw, Galium aparine), corn (Zea mays), large (Lg) crabgrass (Digitaria sanguinalis), giant foxtail (Setaria faberii), johnsongrass (Sorghum halepense), lambsquarters (Chenopodium album), morningglory (Ipomoea coccinea), yellow nutsedge (Cyperus esculentus), pigweed (Amaranthus retroflexus), ragweed (common ragweed, Ambrosia elatior), soybean (Glycine max), bamyardgrass (Echinochloa crus-galli), oilseed rape (Brassica napus), waterhemp (common waterhemp, Amaranthus rudis), and velvetleaf (Abutilon theophrasti) were planted into a blend of loam soil and sand and treated preemergence with test chemicals formulated in a non-phytotoxic solvent mixture which included a surfactant. At the same time, plants selected from these crop and weed species and also kochia (Kochia scoparia), wild oat (Avena fatua), and chickweed (common chickweed, Stellaria media) were planted in pots containing Redi-Earth® planting medium (Scotts Company, 14111 Scottslawn Road, Marysville, Ohio 43041) comprising spaghnum peat moss, vermiculite, wetting agent and starter nutrients and treated with postemergence applications of test chemicals formulated in the same manner. Plants ranged in height from 2 to 18 cm (1- to 4-leaf stage) for postemergence treatments. Treated plants and controls were maintained in a greenhouse for 13 to 15 days, after which time all species were compared to controls and visually evaluated. Plant response ratings, summarized in Table D, are based on a scale of 0 to 100 where 0 is no effect and 100 is complete control. A dash (-) response means no test result.

[2] = system: velvetleaf (Abutilon theophrasti); details: Abutilon theophrasti; for pest or weed control at 16 g/ha: 16 g ai/ha; for pest or weed control at 31 g/ha: 31 g ai/ha; for pest or weed control at 62 g/ha: 62 g ai/ha; for pest or weed control at 125 g/ha: 125 g ai/ha
From the text: as §1

[3] = system: lambsquarters (Chenopodium album); details: Chenopodium album; for pest or weed control at 16 g/ha: 16 g ai/ha; for pest or weed control at 31 g/ha: 31 g ai/ha; for pest or weed control at 62 g/ha: 62 g ai/ha; for pest or weed control at 125 g/ha: 125 g ai/ha
From the text: as §1

[4] = system: giant foxtail (Setaria faberii); details: Setaria faberi; for pest or weed control at 16 g/ha: 16 g ai/ha; for pest or weed control at 31 g/ha: 31 g ai/ha; for pest or weed control at 62 g/ha: 62 g ai/ha; for pest or weed control at 125 g/ha: 125 g ai/ha
From the text: as §1

[5] = system: blackgrass (Alopecurus myosuroides); details: Alopecurus myosuroides; for pest or weed control at 16 g/ha: 16 g ai/ha; for pest or weed control at 31 g/ha: 31 g ai/ha; for pest or weed control at 62 g/ha: 62 g ai/ha; for pest or weed control at 125 g/ha: 125 g ai/ha
From the text: as §1

[6] = system: waterhemp (common waterhemp, Amaranthus rudis); details: Amaranthus tuberculatus; for pest or weed control at 16 g/ha: 16 g ai/ha; for pest or weed control at 31 g/ha: 31 g ai/ha; for pest or weed control at 62 g/ha: 62 g ai/ha; for pest or weed control at 125 g/ha: 125 g ai/ha
From the text: as §1

[7] = system: morningglory (Ipomoea coccinea); details: Ipomoea; for pest or weed control at 16 g/ha: 16 g ai/ha; for pest or weed control at 31 g/ha: 31 g ai/ha; for pest or weed control at 62 g/ha: 62 g ai/ha; for pest or weed control at 125 g/ha: 125 g ai/ha
From the text: as §1

[8] = system: galium (catchweed bedstraw, Galium aparine); details: Galium; for pest or weed control at 16 g/ha: 16 g ai/ha; for pest or weed control at 31 g/ha: 31 g ai/ha; for pest or weed control at 62 g/ha: 62 g ai/ha; for pest or weed control at 125 g/ha: 125 g ai/ha
From the text: as §1

[9] = system: winter wheat (Triticum aestivum); details: Triticum aestivum; for plant injury at 16 g/ha: 16 g ai/ha; for plant injury at 31 g/ha: 31 g ai/ha; for plant injury at 62 g/ha: 62 g ai/ha; for plant injury at 125 g/ha: 125 g ai/ha
From the text: as §1

[10] = post-emergence, Postemergence, scale 0 to 100 (0 no effect, 100 complete control), read-out: Soybean plant response rating
[11] = post-emergence, Postemergence, scale 0 to 100, 0 no effect, 100 complete control, read-out: Plant response rating, Soybean
[12] = pre-emergence, Preemergence, scale 0 to 100 (0 no effect, 100 complete control), read-out: Plant response rating, Soybean
[13] = post-emergence, Postemergence, scale 0 to 100 (0 no effect, 100 complete control), read-out: Velvetleaf plant response rating
[14] = post-emergence, Postemergence, scale 0 to 100, 0 no effect, 100 complete control, read-out: Plant response rating, Velvetleaf
[15] = pre-emergence, Preemergence, scale 0 to 100 (0 no effect, 100 complete control), read-out: Plant response rating, Velvetleaf
[16] = post-emergence, Postemergence, scale 0 to 100 (0 no effect, 100 complete control), read-out: Lambsquarters plant response rating
[17] = post-emergence, Postemergence, scale 0 to 100, 0 no effect, 100 complete control, read-out: Plant response rating, Lambsquarters
[18] = pre-emergence, Preemergence, scale 0 to 100 (0 no effect, 100 complete control), read-out: Plant response rating, Lambsquarters
[19] = post-emergence, Postemergence, scale 0 to 100 (0 no effect, 100 complete control), read-out: Foxtail, Giant plant response rating
[20] = post-emergence, Postemergence, scale 0 to 100, 0 no effect, 100 complete control, read-out: Plant response rating, Foxtail, Giant
[21] = pre-emergence, Preemergence, scale 0 to 100 (0 no effect, 100 complete control), read-out: Plant response rating, Foxtail, Giant
[22] = post-emergence, Postemergence, scale 0 to 100 (0 no effect, 100 complete control), read-out: Blackgrass plant response rating
[23] = post-emergence, Postemergence, scale 0 to 100, 0 no effect, 100 complete control, read-out: Plant response rating, Blackgrass
[24] = pre-emergence, Preemergence, scale 0 to 100 (0 no effect, 100 complete control), read-out: Plant response rating, Blackgrass
[25] = post-emergence, Postemergence, scale 0 to 100 (0 no effect, 100 complete control), read-out: Waterhemp plant response rating
[26] = post-emergence, Postemergence, scale 0 to 100, 0 no effect, 100 complete control, read-out: Plant response rating, Waterhemp
[27] = pre-emergence, Preemergence, scale 0 to 100 (0 no effect, 100 complete control), read-out: Plant response rating, Waterhemp
[28] = post-emergence, Postemergence, scale 0 to 100 (0 no effect, 100 complete control), read-out: Morningglory plant response rating
[29] = post-emergence, Postemergence, scale 0 to 100, 0 no effect, 100 complete control, read-out: Plant response rating, Morningglory
[30] = pre-emergence, Preemergence, scale 0 to 100 (0 no effect, 100 complete control), read-out: Plant response rating, Morningglory
[31] = post-emergence, Postemergence, scale 0 to 100 (0 no effect, 100 complete control), read-out: Galium plant response rating
[32] = post-emergence, Postemergence, scale 0 to 100, 0 no effect, 100 complete control, read-out: Plant response rating, Galium
[33] = pre-emergence, Preemergence, scale 0 to 100 (0 no effect, 100 complete control), read-out: Plant response rating, Galium
[34] = post-emergence, Postemergence, scale 0 to 100 (0 no effect, 100 complete control), read-out: Wheat plant response rating
[35] = post-emergence, Postemergence, scale 0 to 100, 0 no effect, 100 complete control, read-out: Plant response rating, Wheat
[36] = pre-emergence, Preemergence, scale 0 to 100 (0 no effect, 100 complete control), read-out: Plant response rating, Wheat

## Fc1cccc(Oc2ncc(Cl)cn2)c1-c1cc(C(F)F)on1 [Compound 55, 5-chloro-2-[2-[5-(difluoromethyl)-3-isoxazolyl]-3-fluorophenoxy]pyrimidine]
[1]; [10]
  plant injury at 16 g/ha: 65%
  plant injury at 31 g/ha: 75%
[1]; [11]
  plant injury at 62 g/ha: 90%
  plant injury at 125 g/ha: 95%
[1]; pre-emergence, Preemergence, read-out: Plant response rating (scale 0 to 100), Soybean
  plant injury at 125 g/ha: 98%
[1]; [12]
  plant injury at 16 g/ha: 25%
  plant injury at 31 g/ha: 35%
  plant injury at 62 g/ha: 95%
[2]; [13]
  pest or weed control at 16 g/ha: 35%
  pest or weed control at 31 g/ha: 50%
[2]; [14]
  pest or weed control at 62 g/ha: 75%
  pest or weed control at 125 g/ha: 85%
[2]; pre-emergence, Preemergence, read-out: Plant response rating (scale 0 to 100), Velvetleaf
  pest or weed control at 125 g/ha: 100%
[2]; [15]
  pest or weed control at 16 g/ha: 90%
  pest or weed control at 31 g/ha: 100%
  pest or weed control at 62 g/ha: 100%
[3]; [16]
  pest or weed control at 16 g/ha: 75%
  pest or weed control at 31 g/ha: 85%
[3]; [17]
  pest or weed control at 62 g/ha: 98%
  pest or weed control at 125 g/ha: 98%
[3]; pre-emergence, Preemergence, read-out: Plant response rating (scale 0 to 100), Lambsquarters
  pest or weed control at 125 g/ha: 98%
[3]; [18]
  pest or weed control at 16 g/ha: 100%
  pest or weed control at 31 g/ha: 100%
  pest or weed control at 62 g/ha: 100%
[4]; [19]
  pest or weed control at 16 g/ha: 40%
  pest or weed control at 31 g/ha: 50%
[4]; [20]
  pest or weed control at 62 g/ha: 40%
  pest or weed control at 125 g/ha: 75%
[4]; pre-emergence, Preemergence, read-out: Plant response rating (scale 0 to 100), Foxtail, Giant
  pest or weed control at 125 g/ha: 100%
[4]; [21]
  pest or weed control at 16 g/ha: 100%
  pest or weed control at 31 g/ha: 100%
  pest or weed control at 62 g/ha: 100%
[5]; [22]
  pest or weed control at 16 g/ha: 5%
  pest or weed control at 31 g/ha: 10%
[5]; [23]
  pest or weed control at 62 g/ha: 30%
  pest or weed control at 125 g/ha: 50%
[5]; pre-emergence, Preemergence, read-out: Plant response rating (scale 0 to 100), Blackgrass
  pest or weed control at 125 g/ha: 90%
[5]; [24]
  pest or weed control at 16 g/ha: 15%
  pest or weed control at 31 g/ha: 90%
  pest or weed control at 62 g/ha: 90%
[6]; [25]
  pest or weed control at 16 g/ha: 85%
  pest or weed control at 31 g/ha: 90%
[6]; [26]
  pest or weed control at 62 g/ha: 98%
  pest or weed control at 125 g/ha: 100%
[6]; pre-emergence, Preemergence, read-out: Plant response rating (scale 0 to 100), Waterhemp
  pest or weed control at 125 g/ha: 100%
[6]; [27]
  pest or weed control at 16 g/ha: 100%
  pest or weed control at 31 g/ha: 100%
  pest or weed control at 62 g/ha: 100%
[7]; [28]
  pest or weed control at 16 g/ha: 70%
  pest or weed control at 31 g/ha: 70%
[7]; [29]
  pest or weed control at 62 g/ha: 80%
  pest or weed control at 125 g/ha: 85%
[7]; pre-emergence, Preemergence, read-out: Plant response rating (scale 0 to 100), Morningglory
  pest or weed control at 125 g/ha: 100%
[7]; [30]
  pest or weed control at 16 g/ha: 10%
  pest or weed control at 31 g/ha: 50%
  pest or weed control at 62 g/ha: 100%
[8]; [31]
  pest or weed control at 16 g/ha: 80%
  pest or weed control at 31 g/ha: 90%
[8]; [32]
  pest or weed control at 62 g/ha: 90%
  pest or weed control at 125 g/ha: 90%
[8]; pre-emergence, Preemergence, read-out: Plant response rating (scale 0 to 100), Galium
  pest or weed control at 125 g/ha: 100%
[8]; [33]
  pest or weed control at 16 g/ha: 100%
  pest or weed control at 31 g/ha: 100%
  pest or weed control at 62 g/ha: 100%
[9]; [34]
  plant injury at 16 g/ha: 5%
  plant injury at 31 g/ha: 25%
[9]; [35]
  plant injury at 62 g/ha: 30%
  plant injury at 125 g/ha: 35%
[9]; pre-emergence, Preemergence, read-out: Plant response rating (scale 0 to 100), Wheat
  plant injury at 125 g/ha: 60%
[9]; [36]
  plant injury at 16 g/ha: 0%
  plant injury at 31 g/ha: 0%
  plant injury at 62 g/ha: 25%
